Data set [1] deals with Plasmodium falciparum. Briefly: Antimalarial activity against Plasmodium falciparum K1 […] assessed as parasite growth inhibition. In kind it is functional, organism-based.
Data set [2] in a line: Selectivity index, ratio of CC50 for rat L6 cells to IC50 for Plasmodium falciparum K1 […]. In kind it is toxicity, cell-based. As to conditions: read-out: Ratio CC50/IC50.
A further data set concerns MOLT-3. Briefly: Antiproliferative activity against human MOLT-3 cells assessed as cell growth inhibition. In kind it is functional, cell-based.
The subject of data set [3] is Plasmodium falciparum. Nature of the data set: Antimalarial activity against Plasmodium falciparum K1 assessed as parasite growth inhibition. In kind it is functional, organism-based.
Data set [4] relates to Plasmodium falciparum. Nature of the data set: Antimalarial activity against Plasmodium falciparum NF54 assessed as parasite growth inhibition. In kind it is functional, organism-based.
Data set [5] can be described thus: Selectivity index, ratio of IC50 for rat L6 cells to IC50 for Plasmodium falciparum NF54. In kind it is toxicity. The settings on record: read-out: Ratio IC50.
Data set [6] in a line: Selectivity index, ratio of IC50 for rat L6 cells to IC50 for Plasmodium falciparum K1. In kind it is toxicity. As to conditions: read-out: Ratio IC50.
The nature of data set [7]: Cytotoxicity against rat L6 cells assessed as cell growth inhibition. In kind it is toxicity, cell-based.
For the next data set, the system named is Hemozoin. Briefly: Inhibition of beta-hematin formation.
The test system of data set [8] is HCT-116. Briefly: Antiproliferative activity against human HCT-116 cells assessed as cell growth inhibition. In kind it is functional, cell-based.
Data set [9] has as its system Plasmodium falciparum. Briefly: Antimalarial activity against chloroquine/pyrimethamine resistant Plasmodium falciparum K1 assessed as parasite growth inhibition by measuring [3H]-hypoxanthine incubated for 24 hrs. In kind it is functional, organism-based.
Data set [10] deals with HCT-116. Nature of the data set: Antiproliferative activity against human HCT-116 cells assessed as cell growth inhibition incubated for 96 hrs by MTS assay. As to conditions: HCT-116, 96 h. In kind it is functional, cell-based.
Data set [11] concerns the target Telomerase reverse transcriptase (Homo sapiens, UniProt O14746). Briefly: Inhibition of telomerase derived from human K562 cell extract incubated for 30 mins by TRAP assay. In kind it is cell-free.
The next data set concerns Trypanosoma brucei. Nature of the data set: Antitrypanosomal activity against Trypanosoma brucei assessed as parasite growth inhibition. In kind it is functional, organism-based.
The subject of data set [12] is Plasmodium falciparum. Nature of the data set: Antimalarial activity against multi-drug resistant Plasmodium falciparum K1 assessed as parasite growth inhibition by microdilution method. In kind it is functional, organism-based. (Broth dilution looks for growth in wells or tubes with falling amounts of substance.)
For data set [13], the system named is A2780. Briefly: Cytotoxicity against human A2780 cells assessed as cell growth inhibition. In kind it is functional, cell-based.
Data set [14] concerns A2780. Nature of the data set: Cytotoxicity against drug resistant human A2780 cells assessed as cell growth inhibition. In kind it is functional, cell-based.
For data set [15], the system named is CH1. Nature of the data set: Cytotoxicity against human CH1 cells assessed as cell growth inhibition. In kind it is functional, cell-based.
Data set [16] concerns CH1. Briefly: Cytotoxicity against drug resistant human CH1 cells assessed as cell growth inhibition. In kind it is functional, cell-based.
The next data set has as its system SK-OV-3. Briefly: Cytotoxicity against human SK-OV-3 cells assessed as cell growth inhibition. In kind it is functional, cell-based.
A further data set has as its system K562. Briefly: Antiproliferative activity against human K562 cells assessed as cell growth inhibition. In kind it is functional.
The test system of a further data set is MOLT-4. Briefly: Antiproliferative activity against human MOLT-4 cells assessed as cell growth inhibition. In kind it is functional.
The next data set has as its system RPMI-8226. Nature of the data set: Antiproliferative activity against human RPMI-8226 cells assessed as cell growth inhibition. In kind it is functional.
Another data set deals with Plasmodium berghei. Nature of the data set: Antimalarial activity against Plasmodium berghei NK65 infected in Webster Swiss mouse assessed as parasite growth inhibition at 50 mg/kg/day, po for 5 days by geimsa dye based microscopy relative to control. The arrangement: scale not given: the % may be the effect or the level left. As to conditions: time 5 day. In kind it is functional.

The next data set relates to A549. Briefly: Antiproliferative activity against human A549 cells assessed as cell growth inhibition. In kind it is functional, cell-based.
A further data set has as its system MCF7. Nature of the data set: Antiproliferative activity against human MCF7 cells assessed as cell growth inhibition. In kind it is functional, cell-based.
For data set [17], the target named is DNA topoisomerase 2-beta (Homo sapiens) (UniProt Q02880). Briefly: Inhibition of human topoisomerase-2-beta.
Chain of DNA topoisomerase 2-beta (Homo sapiens) (Q02880 whole entry): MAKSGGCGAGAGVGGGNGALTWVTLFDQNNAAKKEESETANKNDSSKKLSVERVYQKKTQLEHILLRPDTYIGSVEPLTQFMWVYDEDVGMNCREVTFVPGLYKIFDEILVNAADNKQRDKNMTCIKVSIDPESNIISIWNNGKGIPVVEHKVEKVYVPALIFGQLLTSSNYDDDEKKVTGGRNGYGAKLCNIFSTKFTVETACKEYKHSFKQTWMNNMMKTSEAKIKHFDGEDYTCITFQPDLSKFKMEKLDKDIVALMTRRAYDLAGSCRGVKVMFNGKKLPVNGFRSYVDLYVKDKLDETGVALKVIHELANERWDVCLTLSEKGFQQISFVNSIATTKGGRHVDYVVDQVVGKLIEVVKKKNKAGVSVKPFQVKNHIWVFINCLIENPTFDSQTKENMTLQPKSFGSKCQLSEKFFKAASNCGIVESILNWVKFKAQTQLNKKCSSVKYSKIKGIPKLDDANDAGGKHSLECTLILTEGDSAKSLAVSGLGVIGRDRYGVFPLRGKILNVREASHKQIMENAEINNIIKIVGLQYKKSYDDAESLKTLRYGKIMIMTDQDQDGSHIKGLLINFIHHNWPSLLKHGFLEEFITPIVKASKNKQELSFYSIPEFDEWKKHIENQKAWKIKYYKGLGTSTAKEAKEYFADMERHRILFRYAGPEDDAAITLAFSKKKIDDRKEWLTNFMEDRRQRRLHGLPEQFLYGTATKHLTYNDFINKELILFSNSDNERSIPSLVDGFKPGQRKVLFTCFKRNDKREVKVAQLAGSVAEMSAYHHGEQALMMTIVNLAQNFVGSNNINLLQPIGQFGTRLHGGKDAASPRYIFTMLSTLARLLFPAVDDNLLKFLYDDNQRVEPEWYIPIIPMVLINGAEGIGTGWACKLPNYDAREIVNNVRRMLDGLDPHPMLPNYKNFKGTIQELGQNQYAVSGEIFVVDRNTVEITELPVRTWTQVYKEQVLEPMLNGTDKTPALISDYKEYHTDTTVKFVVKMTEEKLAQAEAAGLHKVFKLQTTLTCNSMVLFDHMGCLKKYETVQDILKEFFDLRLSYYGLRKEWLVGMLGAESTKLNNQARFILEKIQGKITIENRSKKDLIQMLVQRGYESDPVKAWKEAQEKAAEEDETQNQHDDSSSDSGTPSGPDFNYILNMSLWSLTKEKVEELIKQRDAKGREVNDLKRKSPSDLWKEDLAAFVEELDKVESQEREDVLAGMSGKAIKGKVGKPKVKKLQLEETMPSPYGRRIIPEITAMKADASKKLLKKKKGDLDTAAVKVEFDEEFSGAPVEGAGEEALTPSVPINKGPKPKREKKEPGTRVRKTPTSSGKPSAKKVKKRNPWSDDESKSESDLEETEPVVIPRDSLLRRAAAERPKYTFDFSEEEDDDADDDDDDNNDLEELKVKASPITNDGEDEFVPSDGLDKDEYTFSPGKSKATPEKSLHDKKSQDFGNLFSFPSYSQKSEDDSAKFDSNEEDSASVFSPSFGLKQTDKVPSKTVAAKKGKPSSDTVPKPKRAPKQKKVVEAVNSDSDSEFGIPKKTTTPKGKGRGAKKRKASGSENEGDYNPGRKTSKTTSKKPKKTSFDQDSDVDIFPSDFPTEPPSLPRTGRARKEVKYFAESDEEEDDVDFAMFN

Converted amounts (≈) assume the structure as drawn.

Chain of Telomerase reverse transcriptase (O14746 whole entry): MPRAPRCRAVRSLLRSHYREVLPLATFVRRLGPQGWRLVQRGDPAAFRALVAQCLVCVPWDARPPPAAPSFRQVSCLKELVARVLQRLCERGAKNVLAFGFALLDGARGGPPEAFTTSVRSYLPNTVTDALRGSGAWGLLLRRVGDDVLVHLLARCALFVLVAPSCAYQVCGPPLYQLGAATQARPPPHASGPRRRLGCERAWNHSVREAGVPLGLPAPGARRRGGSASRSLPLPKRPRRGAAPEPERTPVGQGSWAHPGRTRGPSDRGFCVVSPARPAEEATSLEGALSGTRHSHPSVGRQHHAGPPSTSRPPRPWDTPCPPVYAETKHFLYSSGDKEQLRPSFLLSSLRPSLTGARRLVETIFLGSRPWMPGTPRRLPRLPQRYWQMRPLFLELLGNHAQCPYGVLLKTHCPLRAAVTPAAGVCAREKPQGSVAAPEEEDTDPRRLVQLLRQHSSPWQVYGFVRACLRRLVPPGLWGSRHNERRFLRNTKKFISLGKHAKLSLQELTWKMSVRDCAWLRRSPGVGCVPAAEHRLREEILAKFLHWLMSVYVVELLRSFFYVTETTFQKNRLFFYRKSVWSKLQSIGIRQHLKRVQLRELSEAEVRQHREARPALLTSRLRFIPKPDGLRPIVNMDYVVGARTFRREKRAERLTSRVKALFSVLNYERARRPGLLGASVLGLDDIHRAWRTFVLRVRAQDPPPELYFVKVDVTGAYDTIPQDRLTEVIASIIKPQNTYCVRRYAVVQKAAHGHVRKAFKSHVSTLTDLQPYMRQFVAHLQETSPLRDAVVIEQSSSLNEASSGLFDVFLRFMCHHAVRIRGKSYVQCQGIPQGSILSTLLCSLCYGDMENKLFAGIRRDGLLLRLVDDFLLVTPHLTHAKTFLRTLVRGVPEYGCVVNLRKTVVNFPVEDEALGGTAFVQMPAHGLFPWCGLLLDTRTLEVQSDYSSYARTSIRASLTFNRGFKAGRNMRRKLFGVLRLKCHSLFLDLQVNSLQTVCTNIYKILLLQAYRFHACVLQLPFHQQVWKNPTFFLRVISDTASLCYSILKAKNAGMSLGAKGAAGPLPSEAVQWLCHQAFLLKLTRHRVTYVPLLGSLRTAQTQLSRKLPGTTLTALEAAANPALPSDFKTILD

As for `Cn1cc2c3ccccc3nc-2c2ccccc21` [ISOCRYPTOLEPINE], the IC50 in the data set with Plasmodium falciparum [1] came to 0.78 µM; in the data set with MOLT-3 it was 0.73 µM. Further, the selectivity ratio in data set [2] worked out at 1.8.

For the compound `CN(C)CCNc1nc2ccccc2c2[nH]c3ccccc3c12`, the IC50 in the data set on Plasmodium falciparum [3] is 0.0827 µM; in the data set with Plasmodium falciparum [4], 0.0137 µM; in data set [7], 0.627 µM; in the data set on Hemozoin, 627 µM. The selectivity ratio amounted to 45.8 in [5] and 7.6 in data set [6].

`CNCCCNc1c2ccccc2nc2c1[nH]c1ccccc12`: the IC50 in the data set on HCT-116 [8] came out at 0.3 µM.

Turning to `COc1cc2c(cc1CN1CCC(N3CCCCC3)CC1)[nH]c1c3ccc(Cl)cc3ncc21`, the IC50 in the data set on Plasmodium falciparum [9] came to 0.05 µM.

`CCN(CC)CCOC(=O)c1ccc2c(c1)c1c(c(=O)c3ccccc3n1CCN(CC)CC)n2CCN(CC)CC`: the IC50 with HCT-116 [10] amounted to 4.5 µM.

For the compound `CCN(CC)Cc1cc2[nH]c3c4ccc(Cl)cc4ncc3c2cc1OC`, the IC50 with Plasmodium falciparum [3] turned out to be 0.009 µM.

As for `CN(CCCNc1c2ccccc2nc2c1[nH]c1ccccc12)C(=O)c1cccc(B(O)O)c1`, the IC50 in the data set with HCT-116 [8] turned out to be 15.7 µM.

For `Cn1c2nc3ccccc3c-2c(NCCCN)c2ccccc21`, the selectivity ratio in data set [5] was determined as 3.5.

Compound `c1ccc2c(NCCN3CCOCC3)c3[nH]c4ccccc4c3nc2c1` showed an IC50 in [11] of 0.55 µM.

For `OCCCNc1c2ccccc2nc2c1[nH]c1ccccc12`, 1.55 µM corresponded to half-maximal inhibition in data set [11] (IC50).

On to `COC(=O)c1ccc2c(c1)c(NCCCN)c1c3ccccc3nc-1n2C`, for which it took 104 µM to reach half-maximal inhibition in the data set with Hemozoin (IC50).

Take `Cn1c2nc3ccccc3c-2c(NCCCN2C(=O)c3ccccc3SC2c2ccc(Cl)cc2)c2ccccc21` (centres undefined): the values for the IC50 with Plasmodium falciparum [4] and in the data set on Trypanosoma brucei were 0.0026 µM and 0.868 µM, respectively. In addition, in data set [5], the selectivity ratio came to 361.

`NCCCNc1c2ccccc2nc2c1[nH]c1ccccc12`: the selectivity ratio in [5] was 16. Moreover, the IC50 in the data set with Hemozoin amounted to 16.8 µM.

Turning to `Cn1c2nc3ccccc3c-2c(NCCCNC(=S)Nc2ccccc2)c2ccccc21`, the selectivity ratio worked out at 135 in data set [5] and 11 in [6]. In addition, the IC50 with Trypanosoma brucei was 0.589 µM.

`c1ccc2nc3c(cc2c1)[nH]c1ccccc13` [QUINDOLINE]: the IC50 with Plasmodium falciparum [12] was > 229 µM; in the data set on A2780 [13] it was 21.5 µM; with A2780 [14], 24.5 µM; in the data set on CH1 [15], 15.5 µM; with CH1 [16], 30 µM; in the data set on SK-OV-3, 66 µM. The IC50 in data set [11] was > 138 µM.

`Cn1c2nc3ccccc3c-2c(Nc2ccccc2)c2ccccc21`: the figures for the GI50 in the data set with K562, in the data set with MOLT-4 and with RPMI-8226 were 1.84 µM, 0.32 µM and 1.08 µM, respectively.

In the case of `CN(C)c1ccc(C2SCC(=O)N2CCCNc2c3c4ccccc4nc-3n(C)c3ccccc23)cc1` (centres undefined), in the data set with Trypanosoma brucei, the IC50 stood at 1.37 µM.

For the compound `CN(C)CCNc1c2ccccc2nc2c1[nH]c1ccccc12`, in data set [11], the midpoint of inhibition, the IC50, lay at 1.12 µM.

Turning to `O=C(NCCNc1c2ccccc2nc2c1[nH]c1ccccc12)c1ccccc1`, the IC50 in the data set on HCT-116 [8] was determined as 0.8 µM.

`OCCNc1c2ccccc2nc2c1[nH]c1ccccc12` registered an IC50 in data set [11] of 2.35 µM.

As to `C[n+]1c2ccccc2cc2[n-]c3ccccc3c21` [CRYPTOLEPINE], in the data set with Plasmodium berghei, the Activity was 43%. Also, the values for the IC50 in the data set with A549 and with MCF7 were 1.05 µM and 0.63 µM, respectively. The compound further had an MIC in data set [17] of 0.25 µM (≈ 0.0581 µg/mL).

Usually IC50 stands for the concentration that gives 50% inhibition. The term GI50 denotes the concentration giving 50% growth inhibition.

The values above are taken from ChEMBL document CHEMBL5113378, “Role of basic aminoalkyl chains in the lead optimization of Indoloquinoline alkaloids” (Eur J Med Chem, 2022).
